Assay results published in patent US20230278972A1, “SUBSTITUTED HALOALKYL SULFONANILIDE HERBICIDES” (FMC Corporation, priority 2020, published 2023).

How the values were obtained:
Assay type in all cases: in vivo
[1] = tested on: wheat (Triticum aestivum); assay: Test A postemergence, wheat; conditions: Postemergence, 0 to 100 scale (0 no effect, 100 complete control)
Method in brief: (§1)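 After sowing into a sand-amended loam, pots for the preemergence test were treated by spraying directly onto soil. In parallel, seedlings at the one- to two-leaf stage and 2 to 10 cm tall were treated postemergence with the identical surfactant-containing formulation.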

[2] = tested on: barnyardgrass (Echinochloa crus-galli); assay: Test A postemergence, barnyardgrass; conditions: Postemergence, 0 to 100 scale (0 no effect, 100 complete control)
Method in brief: as §1

kochia (Bassia scoparia) [3] = assay: Test A preemergence, kochia; conditions: Preemergence; for Kochia plant response rating: 125 g ai/ha, visual injury on 0 to 100 scale (0 no effect, 100 complete control), approximately 10 days; for Plant response rating, Kochia: 500 g ai/ha, 0 to 100 scale (0 no effect, 100 complete control)
Method in brief: (§2)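 Postemergence ratings come from foliar sprays onto one- to two-leaf plants of 2 to 10 cm grown in loam/sand; preemergence ratings come from a directed spray onto the soil of newly seeded pots. Formulation was a surfactant-containing non-phytotoxic solvent blend.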

corn (Zea mays) = assay: Test A postemergence, corn; conditions: Postemergence, 0 to 100 scale (0 no effect, 100 complete control)
Method in brief: as §2

[4] = tested on: Ryegrass, Italian (Italian ryegrass, Lolium multiflorum); assay: Test A preemergence, Ryegrass, Italian; conditions: Preemergence; for Ryegrass, Italian plant response rating: 125 g ai/ha, visual injury on 0 to 100 scale (0 no effect, 100 complete control), approximately 10 days; for Plant response rating, Ryegrass, Italian: 500 g ai/ha, 0 to 100 scale (0 no effect, 100 complete control)
Method in brief: as §2

[5] = tested on: pigweed (Amaranthus retroflexus); assay: Test A preemergence, pigweed; conditions: for Pigweed plant response rating: 125 g ai/ha, visual injury on 0 to 100 scale (0 no effect, 100 complete control), approximately 10 days; for Plant response rating, Pigweed: 500 g ai/ha, 0 to 100 scale (0 no effect, 100 complete control)
Method in brief: as §1

[6] = tested on: blackgrass (Alopecurus myosuroides); assay: Test A postemergence, blackgrass; conditions: Postemergence, 0 to 100 scale (0 no effect, 100 complete control)
Method in brief: as §2

[7] = tested on: Foxtail, Giant (giant foxtail, Setaria faberi); assay: Test A preemergence, Foxtail, Giant; conditions: Preemergence; for Foxtail, Giant plant response rating: 125 g ai/ha, visual injury on 0 to 100 scale (0 no effect, 100 complete control), approximately 10 days; for Plant response rating, Foxtail, Giant: 500 g ai/ha, 0 to 100 scale (0 no effect, 100 complete control)
Method in brief: as §2

[8] = tested on: Ryegrass, Italian (Italian ryegrass, Lolium multiflorum); assay: Test A postemergence, Ryegrass, Italian; conditions: Postemergence, 0 to 100 scale (0 no effect, 100 complete control)
Method in brief: as §2

[9] = tested on: barnyardgrass (Echinochloa crus-galli); assay: Test A preemergence, barnyardgrass; conditions: Preemergence; for Barnyardgrass plant response rating: 125 g ai/ha, visual injury on 0 to 100 scale (0 no effect, 100 complete control), approximately 10 days; for Plant response rating, Barnyardgrass: 500 g ai/ha, 0 to 100 scale (0 no effect, 100 complete control)
Method in brief: as §2

[10] = tested on: ragweed (common ragweed, Ambrosia artemisiifolia); assay: Test A preemergence, ragweed; conditions: Preemergence; for Ragweed plant response rating: 125 g ai/ha, visual injury on 0 to 100 scale (0 no effect, 100 complete control), approximately 10 days; for Plant response rating, Ragweed: 500 g ai/ha, 0 to 100 scale (0 no effect, 100 complete control)
Method in brief: as §2

kochia (Bassia scoparia) [11] = assay: Test A postemergence, kochia; conditions: Postemergence, 0 to 100 scale (0 no effect, 100 complete control)
Method in brief: as §2

[12] = tested on: pigweed (Amaranthus retroflexus); assay: Test A postemergence, pigweed; conditions: Postemergence, 0 to 100 scale (0 no effect, 100 complete control)
Method in brief: as §2

[13] = tested on: Foxtail, Giant (giant foxtail, Setaria faberi); assay: Test A postemergence, Foxtail, Giant; conditions: Postemergence, 0 to 100 scale (0 no effect, 100 complete control)
Method in brief: as §2

[14] = tested on: galium (catchweed bedstraw, Galium aparine); assay: Test A postemergence, galium; conditions: Postemergence, 0 to 100 scale (0 no effect, 100 complete control)
Method in brief: as §1

[15] = tested on: ragweed (common ragweed, Ambrosia artemisiifolia); assay: Test A postemergence, ragweed; conditions: Postemergence, 0 to 100 scale (0 no effect, 100 complete control)
Method in brief: as §2

[16] = 125 g ai/ha, visual injury approx. 10 days
[17] = 500 g ai/ha, visual injury, approx. 10 days

Row | Structure (SMILES) | Plant response rating, Wheat [1, 16] | Plant response rating, Wheat [1, 17] | Plant response rating, Barnyardgrass [2, 16] | Plant response rating, Barnyardgrass [2, 17] | Kochia plant response rating (kochia (Bassia scoparia) [3]) | Plant response rating, Kochia (kochia (Bassia scoparia) [3]) | Plant response rating, Corn (corn (Zea mays); [16]) | Plant response rating, Corn (corn (Zea mays); [17]) | Ryegrass, Italian plant response rating [4] | Plant response rating, Ryegrass, Italian [4] | Pigweed plant response rating [5] | Plant response rating, Pigweed [5] | Plant response rating, Blackgrass [6, 16] | Plant response rating, Blackgrass [6, 17] | Foxtail, Giant plant response rating [7] | Plant response rating, Foxtail, Giant [7] | Plant response rating, Ryegrass, Italian [8, 16] | Plant response rating, Ryegrass, Italian [8, 17] | Barnyardgrass plant response rating [9] | Plant response rating, Barnyardgrass [9] | further results
1 | Cc1cc(C)c(N(S(C)(=O)=O)S(=O)(=O)C(F)(F)F)cc1-c1cc(C(C)C)nn(C)c1=O [Compound 39] | 60 | 60 | 0 | 30 | 0 | 0 | 0 | 0 | 30 | 70 | 0 | 0 | 0 | 0 | 10 | 90 | 0 | 40 | 40 | 90 | Ragweed plant response rating [10]: 0; Plant response rating, Ragweed [10]: 30; Plant response rating, Kochia (kochia (Bassia scoparia) [11]; [16]): 0; Plant response rating, Kochia (kochia (Bassia scoparia) [11]; [17]): 0; Plant response rating, Pigweed [12, 16]: 0; Plant response rating, Pigweed [12, 17]: 0; Plant response rating, Foxtail, Giant [13, 16]: 0; Plant response rating, Foxtail, Giant [13, 17]: 0; Plant response rating, Galium [14, 16]: 0; Plant response rating, Galium [14, 17]: 0; Plant response rating, Ragweed [15, 16]: 20; Plant response rating, Ragweed [15, 17]: 70
2 | COc1cnn(-c2cc(N(S(=O)(=O)C(F)(F)F)S(=O)(=O)C(F)(F)F)c(C)cc2C)c(=O)c1OC [Compound 40] | 0 | 40 | 10 | 40 | 80 | 80 | 0 | 0 | 30 | 80 | 100 | 100 | 10 | 10 | 90 | 100 | 30 | 60 | 90 | 90 | Ragweed plant response rating [10]: 50; Plant response rating, Ragweed [10]: 50; Plant response rating, Kochia (kochia (Bassia scoparia) [11]; [16]): 10; Plant response rating, Kochia (kochia (Bassia scoparia) [11]; [17]): 20; Plant response rating, Pigweed [12, 16]: 0; Plant response rating, Pigweed [12, 17]: 30; Plant response rating, Foxtail, Giant [13, 16]: 0; Plant response rating, Foxtail, Giant [13, 17]: 10; Plant response rating, Galium [14, 16]: 20; Plant response rating, Galium [14, 17]: 70; Plant response rating, Ragweed [15, 16]: 40; Plant response rating, Ragweed [15, 17]: 40
3 | Cc1cc(C)c(-c2cc(C(C)C)nn(C)c2=O)cc1NS(=O)(=O)C(F)(F)F [Compound 41] | 50 | 60 | 0 | 80 | 0 | 0 | 0 | 0 | 60 | 80 | 0 | 0 | 0 | 40 | 10 | 80 | 60 | 60 | 50 | 90 | Ragweed plant response rating [10]: 30; Plant response rating, Ragweed [10]: 80; Plant response rating, Kochia (kochia (Bassia scoparia) [11]; [16]): 0; Plant response rating, Kochia (kochia (Bassia scoparia) [11]; [17]): 0; Plant response rating, Pigweed [12, 16]: 0; Plant response rating, Pigweed [12, 17]: 0; Plant response rating, Foxtail, Giant [13, 16]: 0; Plant response rating, Foxtail, Giant [13, 17]: 30; Plant response rating, Galium [14, 16]: 10; Plant response rating, Galium [14, 17]: 30; Plant response rating, Ragweed [15, 16]: 40; Plant response rating, Ragweed [15, 17]: 70
4 | Cc1cc(C)c(N(S(=O)(=O)C(F)(F)F)S(=O)(=O)C(F)(F)F)cc1-c1cn(C)c(=O)n(C)c1=O [Compound 42] | 70 | 70 | 70 | 80 | 40 | 70 | 0 | 60 | 100 | 100 | 40 | 80 | 40 | 90 | 100 | 100 | 70 | 80 | 90 | 100 | Ragweed plant response rating [10]: 30; Plant response rating, Ragweed [10]: 80; Plant response rating, Kochia (kochia (Bassia scoparia) [11]; [16]): 20; Plant response rating, Kochia (kochia (Bassia scoparia) [11]; [17]): 30; Plant response rating, Pigweed [12, 16]: 40; Plant response rating, Pigweed [12, 17]: 100; Plant response rating, Foxtail, Giant [13, 16]: 90; Plant response rating, Foxtail, Giant [13, 17]: 90; Plant response rating, Galium [14, 16]: 50; Plant response rating, Galium [14, 17]: 60; Plant response rating, Ragweed [15, 16]: 40; Plant response rating, Ragweed [15, 17]: 80
5 | CCn1cc(-c2cc(N(S(=O)(=O)C(F)(F)F)S(=O)(=O)C(F)(F)F)c(C)cc2C)c(=O)n(CC)c1=O [Compound 43] | 70 | 70 | 90 | 90 | 0 | 90 | 10 | 80 | 100 | 100 | 20 | 60 | 70 | 90 | 100 | 100 | 20 | 50 | 90 | 100 | Ragweed plant response rating [10]: 0; Plant response rating, Ragweed [10]: 0; Plant response rating, Kochia (kochia (Bassia scoparia) [11]; [16]): 20; Plant response rating, Kochia (kochia (Bassia scoparia) [11]; [17]): 40; Plant response rating, Pigweed [12, 16]: 80; Plant response rating, Pigweed [12, 17]: 80; Plant response rating, Foxtail, Giant [13, 16]: 90; Plant response rating, Foxtail, Giant [13, 17]: 90; Plant response rating, Galium [14, 16]: 70; Plant response rating, Galium [14, 17]: 90; Plant response rating, Ragweed [15, 16]: 60; Plant response rating, Ragweed [15, 17]: 60
